The record followed here is publication PMC10743537 (2023).

The test relates to nicked decamer duplex 3 (DNA, duplex, PEG(6) tether between positions 5 and 6 (C10/G11 in paper numbering) and between positions 15 and 16 (C20/G1); nick between T5 (3' end, position 20) and G6 (5' end, position 1)) GTCGCGCGACAACGCGCGTT
Put plainly: NMR diffusion (DOSY). To be noted: 25 mM NaCl, 25 mM K3PO4; D2O buffer, pH 6.0, 10 °C; 0.60 mM each; 1:1 model assumed, self-association neglected.

In turn, `CCc1c2c(nc3ccc(O)cc13)-c1cc3c(c(=O)n1[C@@H]2CN1CCCC1)COC(=O)[C@]3(O)CC` registered a Ka of 150 mM⁻¹.
The result for `CCc1c2c(nc3ccc(O)cc13)-c1cc3c(c(=O)n1[C@H]2CN1CCCC1)COC(=O)[C@]3(O)CC` reads 76 mM⁻¹.
